In brackets after ≈: the same amount, converted by molar mass.
Assays:
C. albicans = assay: Fluconazole MIC given as descriptor of azole resistant clinical isolates (Table 10); type: cell-based; conditions: Candida albicans
Candida albicans [1] = assay: CLSI broth microdilution MIC (Example 3); type: cell-based
Method: (§1) Antifungal minimum inhibitory concentration (MIC) testing was undertaken as recommended by the CLSI. Briefly, antifungal susceptibility tests were performed for amphotericin B, robenidine (NCL812) and 5 robenidine analogs (NCL062, NCL195, NCL219, NCL259, NCL265) by standard broth microdilution method (CLSI) in RPMI 1640. Various concentrations (ranging from high to low) of the selected compounds were prepared in RPMI 1640 medium by double dilution in 96-well microtitre plates. Each well contained an inoculum of approximately 2×10^3 cells/mL. The wells without addition of drugs served as negative (no inoculum) and positive (inoculum only) growth controls. Microtitre plates were incubated at 35° C. for 24-48 hours. […] Antifungal MICs were determined for each isolate in duplicate; if the values obtained were different, the MIC test was repeated a third time. Antifungal susceptibility tests were performed for amphotericin B and NCL analogs by standard broth microdilution method (CLSI). Briefly, various concentrations (ranging from high to low) of the selected compounds were prepared in RPMI 1640 medium by double dilution in the 96-well plates. Each well contained an inoculum of approximately 2×10^3 cells/mL. The wells without addition of drugs served as a negative control. Micro plates were incubated at 35° C. for 48 hour and read spectrophotometrically at 600 nm, using a microplate reader (Multiskan-EX; Thermo Elect. Corp., USA).

Candida parapsilosis = assay: CLSI broth microdilution MIC (Example 3); type: cell-based; conditions: Candida parapsilosis ATCC 22019
Method: as §1

Candida albicans [2] = assay: CLSI broth microdilution MIC (Example 4); type: cell-based
How it was run: (§2)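 CLSI broth microdilution in RPMI 1640 with two-fold compound dilutions and inoculum about 2×10^3 cells/mL. Plates incubated 35° C for 24-48 hours; MICs determined in duplicate, with a third test when the duplicates differed.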

Cryptococcus neoformans [3] = assay: CLSI broth microdilution MIC (Example 4); type: cell-based
How it was run: as §2

Candida albicans [4] = assay: CLSI broth microdilution MIC (Example 5); type: cell-based
Method: (§3) Antifungal minimum inhibitory concentration (MIC) testing was undertaken as recommended by the CLSI. Briefly, antifungal susceptibility tests were performed for amphotericin B, robenidine (NCL812) and robenidine analogs (NCL23, NCL24, NCL97, NCL113, NCL115, NCL195, NCL219, NCL220, NCL259, NCL265) by standard broth microdilution method (CLSI) in RPMI 1640. Various concentrations (ranging from high to low) of the selected compounds were prepared in RPMI 1640 medium by double dilution in 96-well microtitre plates. Each well contained an inoculum of approximately 2×10^3 cells/mL. The wells without addition of drugs served as negative (no inoculum) and positive (inoculum only) growth controls. Microtitre plates were incubated at 35° C. for 24-48 hours. […] Antifungal MICs were determined for each isolate in duplicate; if the values obtained were different, the MIC test was repeated a third time.

Cryptococcus neoformans [5] = assay: CLSI broth microdilution MIC (Example 5); type: cell-based
Method: as §3

Candida albicans [6] = assay: CLSI broth microdilution MIC (Example 6); type: cell-based
Method: (§4) Antifungal minimum inhibitory concentration (MIC) testing was undertaken as recommended by the CLSI (1). Briefly, antifungal susceptibility tests were performed for amphotericin B, robenidine (NCL812) and 10 robenidine analogs (NCL023, NCL024, NCL097, NCL113, NCL115, NCL195, NCL219, NCL220, NCL259, NCL265) by standard broth microdilution method (CLSI) in RPMI 1640. Various concentrations (ranging from high to low) of the selected compounds were prepared in RPMI 1640 medium by double dilution in 96-well microtitre plates. Each well contained an inoculum of approximately 2×10^3 cells/mL. The wells without addition of drugs served as negative (no inoculum) and positive (inoculum only) growth controls. Microtitre plates were incubated at 35° C. for 24-48 hours. […] Antifungal MICs were determined for each isolate in duplicate; if the values obtained were different, the MIC test was repeated a third time.

Cryptococcus neoformans [7] = assay: CLSI broth microdilution MIC (Example 6); type: cell-based
Method: as §4

C. gattii = assay: CLSI broth microdilution MIC (Example 6); type: cell-based, Cryptococcus gattii
Method: as §4

[8] = test system: Candida albicans ATCC14053; assay: Broth micro-dilution screen at 16 μg/mL and MIC (Example 9); type: cell-based
Method: The antifungal activity of 201 NCL analogs against Candida albicans ATCC14053 in vitro was investigated. A broth micro-dilution method was used, according to CLSI guidelines as described. NCL analogs were dissolved in DMSO and originally screened at a single concentration of 16 μg/mL.

OC(Cn1cncn1)(Cn1cncn1)c1ccc(F)cc1F [Fluconazole]
MIC (C. albicans; C. albicans 12-93301752 Azole Resistant): 32 µg/mL (≈ 104 µM)
MIC (C. albicans; C. albicans 14-90045999 Azole Resistant): 64 µg/mL (≈ 209 µM)
MIC (C. albicans; C. albicans 16-24136919 Azole Resistant): 256 µg/mL (≈ 836 µM)
MIC (C. albicans; C. albicans 18-148-08188 Azole Resistant): 8 µg/mL (≈ 26.1 µM)

C/C(=N\NC(=N)N/N=C(\C)c1ccc(C(C)(C)C)cc1)c1ccc(C(C)(C)C)cc1.Cl [NCL219]
MIC (Candida albicans [1]; Candida albicans ATCC 90028, 1st): >32 µg/mL
MIC (Candida albicans [1]; Candida albicans ATCC 90028, 2nd): >32 µg/mL
MIC (Candida albicans [1]; Candida albicans, 1st): >32 µg/mL
MIC (Candida albicans [1]; Candida albicans, 2nd): >32 µg/mL
MIC (Candida parapsilosis; 1st): >32 µg/mL
MIC (Candida parapsilosis; 2nd): >32 µg/mL
MIC at 24-48 hours (Candida albicans [2]; Candida albicans ATCC 90028): 32 µg/mL
MIC at 24-48 hours (Candida albicans [2]; Candida albicans SA3): 16 µg/mL
antifungal activity against the two isolates of Candida albicans (Candida albicans [2]; summary in words): high antifungal activity
MIC at 24-48 hours (Cryptococcus neoformans [3]; Cryptococcus neoformans SA1): 2 µg/mL
MIC at 24-48 hours (Cryptococcus neoformans [3]; Cryptococcus neoformans SA2): 2 µg/mL
MIC (Candida albicans [4]; C. albicans SA3): 16 µg/mL
MIC (Candida albicans [4]; Candida albicans ATCC 90028): 32 µg/mL
MIC (Candida albicans [4]; clinical isolate C. albicans 12-93301752 Azole Resistant): >16 µg/mL
MIC (Candida albicans [4]; clinical isolate C. albicans 14-90045999 Azole Resistant): 4 µg/mL
MIC (Candida albicans [4]; clinical isolate C. albicans 15-45171061): 8 µg/mL
MIC (Candida albicans [4]; clinical isolate C. albicans 15-91329871): >16 µg/mL
MIC (Candida albicans [4]; clinical isolate C. albicans 16-24136919 Azole Resistant): >16 µg/mL
MIC (Candida albicans [4]; clinical isolate C. albicans 16-46177400): >16 µg/mL
MIC (Candida albicans [4]; clinical isolate C. albicans 16-90050810): >16 µg/mL
MIC (Candida albicans [4]; clinical isolate C. albicans 16-90054237): >16 µg/mL
MIC (Candida albicans [4]; clinical isolate C. albicans 18-144-00196): >16 µg/mL
MIC (Candida albicans [4]; clinical isolate C. albicans 18-148-08188 Azole Resistant): >16 µg/mL
activity against one or more isolates of Cryptococcus neoformans and Candida albicans (Candida albicans [4]; summary in words): highly active
MIC (Cryptococcus neoformans [5]; Cryptococcus neoformans SA1): 2 µg/mL
MIC (Cryptococcus neoformans [5]; Cryptococcus neoformans SA2): 2 µg/mL
MIC (Candida albicans [6]; C. albicans SA3): 16 µg/mL
MIC (Candida albicans [6]; Candida albicans ATCC 90028): 32 µg/mL
MIC (Cryptococcus neoformans [7]; Cryptococcus neoformans SA1): 2 µg/mL
MIC (Cryptococcus neoformans [7]; Cryptococcus neoformans SA2): 2 µg/mL
MIC (Cryptococcus neoformans [7]; human clinical isolate C. neoformans serotype A/D hybrid): >32 µg/mL
MIC (Cryptococcus neoformans [7]; human clinical isolate C. neoformans var grubii 16-90050434): >32 µg/mL
MIC (Cryptococcus neoformans [7]; human clinical isolate C. neoformans var grubii 17-90028233): >32 µg/mL
MIC (Cryptococcus neoformans [7]; human clinical isolate C. neoformans var grubii 17-93996464): >32 µg/mL
MIC (Cryptococcus neoformans [7]; human clinical isolate C. neoformans var grubii 17-93996964): >32 µg/mL
MIC (C. gattii; human clinical isolate C. gatti 17-90232099): >32 µg/mL
MIC (C. gattii; human clinical isolate C. gattii 16-90050373): >32 µg/mL
MIC (C. gattii; human clinical isolate C. gattii 17-90028211): >32 µg/mL
MIC (C. gattii; human clinical isolate C. gattii 17-90028217): >32 µg/mL
MIC (C. gattii; human clinical isolate C. gattii 17-90028242): >32 µg/mL
MIC ([8]; C. albicans ATCC14053, test range 0.25-64 μg/mL, duplicate): >64 µg/mL
Screen at 16 μg/mL ([8]; single concentration 16 μg/mL, Growth or No growth of C. albicans ATCC14053): Growth

— patent US20230310388A1, “Methods and Compositions for Treating Fungal Infections” (Neoculi Pty Ltd, priority 2020, published 2023)
